Laboratory results from ChEMBL document CHEMBL4303122, “Identification of potential treatments for COVID-19 through artificial intelligence-enabled phenomic analysis of human cells infected with SARS-CoV-2” (2020).
Several values for one entry are separate records, joined by “and”; a condition that tells them apart may be missing. Equal entries are not always repeated. Structures can show the parent of a compound that is named as a salt.

Assays:
SARS-CoV-2 [1] = assay: Antiviral activity against SARS-CoV-2 (USA-WA1/2020 strain) measured by imaging in Vero cells at MOI 0.08 after 48 hrs (reported as hit score from 0-1 for on-disease vs off-disease activity: scores >0.6 considered hits); type: functional, Chlorocebus sabaeus
SARS-CoV-2 [2] = assay: Antiviral activity against SARS-CoV-2 (USA-WA1/2020 strain) measured by imaging in HRCE cells at MOI 0.4 after 96 hrs (reported as hit score from 0-1 for on-disease vs off-disease activity: scores >0.6 considered hits); type: functional; settings: Homo sapiens

Molecule	Hit score (SARS-CoV-2 [1])	Hit score (SARS-CoV-2 [2])
CC(C)(C)NC(=O)[C@@H]1CN(Cc2cccnc2)CCN1C[C@@H](O)C[C@@H](Cc1ccccc1)C(=O)N[C@H]1c2ccccc2C[C@H]1O.O	0.2525	–
CC[C@H]1OC(=O)[C@@](C)(F)C(=O)[C@H](C)[C@@H](O[C@@H]2O[C@H](C)C[C@H](N(C)C)[C@H]2O)[C@](C)(OC)C[C@@H](C)C(=O)[C@H](C)[C@H]2N(CCCCn3cc(-c4cccc(N)c4)nn3)C(=O)O[C@]12C [SOLITHROMYCIN]	0.6032	–
CCN(CC)CCCC(C)Nc1ccnc2cc(Cl)ccc12 (configuration not stated) [CHLOROQUINE]	0.6704	–
CN(C)C(=O)COC(=O)Cc1ccc(OC(=O)c2ccc(NC(=N)N)cc2)cc1 [CAMOSTAT]	0.2137	–
SPIRAMYCIN	–	0.139 and 0.136
CC1=CC(=O)C(C(C)C)=CC1=O [THYMOQUINONE]	0.2773	–
FLUPENTIXOL	–	0.12
C=C[C@H]1CN2CC[C@H]1C[C@H]2[C@H](OC(=O)OCC)c1ccnc2ccc(OC)cc12 [QUININE ETHYLCARBONATE]	0.1489	–
CCOC(=O)[C@H]1O[C@@H]1C(=O)N[C@@H](CC(C)C)C(=O)NCCC(C)C [ALOXISTATIN]	0.4403	–
CC(C)CN(C[C@@H](O)[C@H](Cc1ccccc1)NC(=O)O[C@H]1CO[C@H]2OCC[C@H]21)S(=O)(=O)c1ccc(N)cc1	0.153	–
C=C[C@H]1CN2CC[C@H]1C[C@H]2[C@H](O)c1ccnc2ccc(OC)cc12 [QUININE]	0.2113	–
hemomex-s	–	0.064
OC[C@H]1O[C@@H](Oc2cc(O)cc(/C=C/c3ccc(O)cc3)c2)[C@H](O)[C@@H](O)[C@@H]1O [PICEID]	0.06165	–
THIMEROSAL	–	-0.0445
Cc1cccc(C)c1OCC(=O)N[C@@H](Cc1ccccc1)[C@@H](O)C[C@H](Cc1ccccc1)NC(=O)[C@H](C(C)C)N1CCCNC1=O [LOPINAVIR]	0.1843	–
NC(=O)c1nc(F)cnc1O	0.1243	–
OXALIPLATIN	–	0.0878
Eplivanserin hemifumarate	–	-0.0126
N[C@@H](CCN[C@@H](CCN1CC[C@H]1C(=O)O)C(=O)O)C(=O)O	0.1086	–
stetaderm	–	0.101
CC(C)OC(=O)OCOP(=O)(CO[C@H](C)Cn1cnc2c(N)ncnc21)OCOC(=O)OC(C)C.O=C(O)/C=C/C(=O)O [TENOFOVIR DISOPROXIL FUMARATE]	0.1962	–

Molecule	Hit score (SARS-CoV-2 [1])	Hit score (SARS-CoV-2 [2])
OC[C@H]1NC[C@H](O)[C@@H](O)[C@H]1O	0.1704	–
C[C@H]1C[C@@H]2[C@H]([C@@H](O)C[C@@]3(C)[C@H]2CC[C@]3(O)C(=O)COC(=O)CCC(=O)[O-])[C@@]2(C)C=CC(=O)C=C12.[Na+] [METHYLPREDNISOLONE SODIUM SUCCINATE]	0.2294	–
Nc1nc(O)c2ncn(CCC(CO)CO)c2n1 [PENCICLOVIR]	0.1283	–
CC(C)c1nc(CN(C)C(=O)N[C@@H](CCN2CCOCC2)C(=O)N[C@H](CC[C@H](Cc2ccccc2)NC(=O)OCc2cncs2)Cc2ccccc2)cs1 [COBICISTAT]	0.2397	–
GADODIAMIDE	–	0.193
CCN(CCO)CCCC(C)Nc1ccnc2cc(Cl)ccc12.O=S(=O)(O)O (configuration not stated) [HYDROXYCHLOROQUINE SULFATE]	0.5553	–
O=C(CCCN1CCC(O)(c2ccc(Cl)cc2)CC1)c1ccc(F)cc1 [HALOPERIDOL]	0.07542	–
O=S(=O)(c1cccc2c(Cl)cccc12)N1CCCNCC1	0.1073	–
NC(=O)c1ncn([C@@H]2O[C@H](CO)[C@@H](O)[C@H]2O)n1 [RIBAVIRIN]	0.1047	–
CCC(CC)COC(=O)[C@H](C)N[P@](=O)(OC[C@H]1O[C@@](C#N)(c2ccc3c(N)ncnn23)[C@H](O)[C@@H]1O)Oc1ccccc1	0.5934	–
CC(C)c1nc(CN(C)C(=O)N[C@H](C(=O)N[C@@H](Cc2ccccc2)C[C@H](O)[C@H](Cc2ccccc2)NC(=O)OCc2cncs2)C(C)C)cs1 [RITONAVIR]	0.1477	–
CC(C)Cn1cnc2c(N)nc3ccccc3c21 [IMIQUIMOD]	0.3174	–
COc1ccc2c(c1)c(CC(=O)O)c(C)n2C(=O)c1ccc(Cl)cc1 [INDOMETHACIN]	0.1024	–
CCOC(=O)c1c(CSc2ccccc2)n(C)c2cc(Br)c(O)c(CN(C)C)c12 [UMIFENOVIR]	0.1334	–
CCC(CC)O[C@@H]1C=C(C(=O)O)C[C@H](N)[C@H]1NC(C)=O [OSELTAMIVIR CARBOXYLATE]	0.1922	–
MONOCTANOIN	–	-0.0148
COC(=O)/C=C/C(=O)OC [DIMETHYL FUMARATE]	0.1078	–
N#C[C@@]1(c2ccc3c(N)ncnn23)O[C@H](CO)[C@@H](O)[C@H]1O [GS-441524]	1	–
perchlozone	–	0.0874
C1=N/C2=N/c3ccc(OCCN4CCCC4)c(c3)COC/C=C/COCc3cccc(c3)C(=C1)N2 [PACRITINIB]	0.2418	–
CC[C@H](Nc1ncnc2[nH]cnc12)c1nc2cccc(F)c2c(=O)n1-c1ccccc1 [IDELALISIB]	-0.08519	–
